Experimental data from patent US20020041897A1, “Compositions for sustained release of antineoplastic taxanes, and methods of making and using the same” (priority 2000, published 2002).

Experiment: Plasma concentrations of paclitaxel as a function of dose after intraperitoneal administration to dogs
Settings: dog
Method: (30%) microspheres were administered intraperitoneally to dogs at doses of 90, 120, 150, 180 and 210 mg/kg; paclitaxel was administered at doses of 9 mg/kg and 12 mg/kg to other dogs. Each dose group comprised one female dog. Plasma samples were taken from each dog at various time points. Samples were analyzed using a LC/MS/MS method. Results are depicted in FIG. 10.
Following administration of 90 and 120 mg/kg doses of […] (30%) microspheres, plasma samples were collected through 63 days. At doses of 150 and 180 mg/kg, the last sample was obtained at 35 days. The last sampling time for the 210 mg/kg dose was 28 days.

Q: Which toxicity outcome (in vivo, ip, 12 mg/kg) does the source give for `CC(=O)O[C@H]1C(=O)[C@@]2(C)[C@H]([C@H](OC(=O)c3ccccc3)[C@]3(O)C[C@H](OC(=O)[C@H](O)[C@@H](NC(=O)c4ccccc4)c4ccccc4)C(C)=C1C3(C)C)[C@]1(OC(C)=O)CO[C@@H]1C[C@@H]2O` [paclitaxel] here?
A: euthanized before the completion of the study due to toxicity

Q: What about the “decline of plasma paclitaxel concentration” value (intraperitoneal, 9 mg/kg) of the same compound?
A: declined in a biphasic manner

Q: And the “time at which maximum plasma paclitaxel concentration was reached” value (intraperitoneal, 9 mg/kg)?
A: 0.5 days

Q: And the “time post dose beyond which plasma paclitaxel could not be detected” value (intraperitoneal, 9 mg/kg)?
A: ≤ 7 days
